From publication PMC3032781, “DNA Polymerase β as a Novel Target for Chemotherapeutic Intervention of Colorectal Cancer” (PLoS ONE, 2011)

Target: T1, Pol-β (Homo sapiens, UniProt P06746)
T1 construct: gene POLB; purified protein
Test: strand-displacement synthesis on […]-labelled 63-mer F-DNA, denaturing gel
Format: biochemical
Settings: pH 7.5, 30 mM KCl, 8 mM MgCl2, 37 °C, 30 min; 5 nM Pol-β, 2 nM APE1 (pre-incision), 2.5 nM DNA

Which IC50 does the source give for “[5-(4-amino-6-iodo-2-oxo-5,6-dihydropyrimidin-1-yl)-3-hydroxy-oxolan-2-yl] methoxyphosphonic acid [NSC-124854]” here?
Its IC50 is 5.3 µM.
